From patent publication US6355799B1, “Substituted benzene compounds, process for their preparation, and herbicidal and defoliant compositions containing them” (ISK Americas Incorporated, priority 1997, dated 2002)

Assays:
Type in all cases: in vivo
[1] = test system: redroot pigweed (Amaranthus retroflexus, AMARE); test: Pre-emerge test, greenhouse herbicide activity screening; settings: rating scale 0-100, 14 days after application
In short: (§1)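 Visual ratings on a 0-100 scale (0 no damage, 100 all plants dead) were taken at 14 days after treatment. Rates of 15-1000 g ai/ha in acetone, 187 l/ha, were sprayed onto soil one day after planting (pre-emerge) or onto 2-3 leaf plants with 0.25% v/v surfactant (post-emerge).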

[2] = test system: lambsquarters (Chenopodium album, CHEAL); test: as above; settings: rating scale 0-100, 14 days after application
In short: as §1

[3] = test system: johnsongrass (Sorghum halepense, SORHA); test: as above; settings: rating scale 0-100, 14 days after application
In short: as §1

[4] = test system: sicklepod (Cassia obtusifolia, CASOB); test: as above; settings: rating scale 0-100, 14 days after application
In short: as §1

[5] = test system: large crabgrass (Digitaria sanguinalis, DIGSA); test: as above; settings: rating scale 0-100, 14 days after application
In short: as §1

[6] = test system: green foxtail (Setaria viridis, SETVI); test: as above; settings: rating scale 0-100, 14 days after application
In short: as §1

[7] = test system: barnyardgrass (Echinochloa crus-galli, ECHCG); test: as above; settings: rating scale 0-100, 14 days after application
In short: as §1

[8] = test system: ivyleaf morningglory (Ipomoea hederacea, IPOHE); test: as above; settings: rating scale 0-100, 14 days after application
In short: as §1

[9] = test system: velvetleaf (Abutilon theophrasti, ABUTH); test: as above; settings: rating scale 0-100, 14 days after application
In short: as §1

[10] = test system: field corn (Zea mays L., var. Dekalb 535, CORN); test: Post-emerge test, crop safety; settings: rating scale 0-100 (0 no damage, 100 complete death), 14 days after application
In short: as §1

[11] = test system: upland rice (Oryza sp., var. Tebonnet, RICE); test: Post-emerge test, crop safety; settings: rating scale 0-100 (0 no damage, 100 complete death), 14 days after application
In short: as §1

[12] = test system: lambsquarters (Chenopodium album, CHEAL); test: Post-emerge test, greenhouse herbicide activity screening; settings: rating scale 0-100 (0 no damage, 100 complete death), 14 days after application
In short: (§2)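 Compounds in acetone were track-sprayed at 15–1000 g ai/ha: pre-emergence onto soil sown the previous day, then top-watered to incorporate and later bottom-watered; post-emergence onto 2–3 leaf plants with 0.25% v/v surfactant, bottom-watered only. Ratings on a 0–100 phytotoxicity scale were taken at day 14.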

[13] = test system: johnsongrass (Sorghum halepense, SORHA); test: as above; settings: rating scale 0-100 (0 no damage, 100 complete death), 14 days after application
In short: as §2

[14] = test system: sicklepod (Cassia obtusifolia, CASOB); test: as above; settings: rating scale 0-100 (0 no damage, 100 complete death), 14 days after application
In short: as §2

[15] = test system: large crabgrass (Digitaria sanguinalis, DIGSA); test: as above; settings: rating scale 0-100 (0 no damage, 100 complete death), 14 days after application
In short: as §2

[16] = test system: common ragweed (Ambrosia artemisizfolia L., AMBEL); test: as above; settings: rating scale 0-100 (0 no damage, 100 complete death), 14 days after application
In short: as §2

[17] = test system: green foxtail (Setaria viridis, SETVI); test: as above; settings: rating scale 0-100 (0 no damage, 100 complete death), 14 days after application
In short: as §2

[18] = test system: redroot pigweed (Amaranthus retroflexus, AMARE); test: as above; settings: rating scale 0-100 (0 no damage, 100 complete death), 14 days after application
In short: as §2

[19] = test system: barnyardgrass (Echinochloa crus-galli, ECHCG); test: as above; settings: rating scale 0-100 (0 no damage, 100 complete death), 14 days after application
In short: as §2

[20] = test system: ivyleaf morningglory (Ipomoea hederacea, IPOHE); test: as above; settings: rating scale 0-100 (0 no damage, 100 complete death), 14 days after application
In short: as §2

[21] = test system: velvetleaf (Abutilon theophrasti, ABUTH); test: as above; settings: rating scale 0-100 (0 no damage, 100 complete death), 14 days after application
In short: as §2

[22] = test system: field corn (Zea mays L., var. Dekalb 535, CORN); test: Pre-emerge test, crop safety; settings: rating scale 0-100, 14 days after application
In short: as §1

[23] = test system: upland rice (Oryza sp., var. Tebonnet, RICE); test: Pre-emerge test, crop safety; settings: rating scale 0-100, 14 days after application
In short: as §1

In the case of `COc1c(Cl)cc(F)c(-n2c(=O)cc(C(F)(F)F)n(C)c2=O)c1CC(Cl)C(=O)OCCC#N` (stereo not shown) [14-29], the “Pre-emerge herbicidal activity, phytotoxicity rating AMARE” value ([1]; 63 g ai/ha) is reported as 20, the “Pre-emerge herbicidal activity, phytotoxicity rating AMARE” value ([1]; 250 g ai/ha) is reported as 95 and the “Pre-emerge herbicidal activity, phytotoxicity rating CHEAL” value ([2]; 63 g ai/ha) is reported as 0. For the same compound, the “Pre-emerge herbicidal activity, phytotoxicity rating CHEAL” value ([2]; 250 g ai/ha) was 50, the “Pre-emerge herbicidal activity, phytotoxicity rating SORHA” value ([3]; 63 g ai/ha) was 0 and the “Pre-emerge herbicidal activity, phytotoxicity rating SORHA” value ([3]; 250 g ai/ha) was 0. The “Pre-emerge herbicidal activity, phytotoxicity rating CASOB” value ([4]; 63 g ai/ha) was 0, the “Pre-emerge herbicidal activity, phytotoxicity rating CASOB” value ([4]; 250 g ai/ha) was 0 and the “Pre-emerge herbicidal activity, phytotoxicity rating DIGSA” value ([5]; 63 g ai/ha) was 0. The “Pre-emerge herbicidal activity, phytotoxicity rating DIGSA” value ([5]; 250 g ai/ha) was 50, the “Pre-emerge herbicidal activity, phytotoxicity rating SETVI” value ([6]; 63 g ai/ha) was 0 and the “Pre-emerge herbicidal activity, phytotoxicity rating SETVI” value ([6]; 250 g ai/ha) was 0. For the same compound, the “Pre-emerge herbicidal activity, phytotoxicity rating ECHCG” value ([7]; 63 g ai/ha) was 0, the “Pre-emerge herbicidal activity, phytotoxicity rating ECHCG” value ([7]; 250 g ai/ha) was 0 and the “Pre-emerge herbicidal activity, phytotoxicity rating IPOHE” value ([8]; 63 g ai/ha) was 0. The “Pre-emerge herbicidal activity, phytotoxicity rating IPOHE” value ([8]; 250 g ai/ha) was 0, the “Pre-emerge herbicidal activity, phytotoxicity rating ABUTH” value ([9]; 63 g ai/ha) was 0 and the “Pre-emerge herbicidal activity, phytotoxicity rating ABUTH” value ([9]; 250 g ai/ha) was 80. For the same compound, the “Post-emerge phytotoxicity rating CORN (crop damage)” value ([10]; Rate 63 g ai/ha) was 15, the “Post-emerge phytotoxicity rating CORN (crop damage)” value ([10]; Rate 250 g ai/ha) was 50 and the “Post-emerge phytotoxicity rating RICE (crop damage)” value ([11]; Rate 63 g ai/ha) was 0. The “Post-emerge phytotoxicity rating RICE (crop damage)” value ([11]; Rate 250 g ai/ha) was 10, the “Post-emerge Herbicidal Activity, phytotoxicity rating CHEAL” value ([12]; Rate 63 g ai/ha) was 30 and the “Post-emerge Herbicidal Activity, phytotoxicity rating CHEAL” value ([12]; Rate 250 g ai/ha) was 60. The “Post-emerge Herbicidal Activity, phytotoxicity rating SORHA” value ([13]; Rate 63 g ai/ha) was 50, the “Post-emerge Herbicidal Activity, phytotoxicity rating SORHA” value ([13]; Rate 250 g ai/ha) was 70 and the “Post-emerge Herbicidal Activity, phytotoxicity rating CASOB” value ([14]; Rate 63 g ai/ha) was 0. The “Post-emerge Herbicidal Activity, phytotoxicity rating CASOB” value ([14]; Rate 250 g ai/ha) was 40, the “Post-emerge Herbicidal Activity, phytotoxicity rating DIGSA” value ([15]; Rate 63 g ai/ha) was 70 and the “Post-emerge Herbicidal Activity, phytotoxicity rating DIGSA” value ([15]; Rate 250 g ai/ha) was 95. The “Post-emerge Herbicidal Activity, phytotoxicity rating AMBEL” value ([16]; Rate 63 g ai/ha) was 100, the “Post-emerge Herbicidal Activity, phytotoxicity rating AMBEL” value ([16]; Rate 250 g ai/ha) was 100 and the “Post-emerge Herbicidal Activity, phytotoxicity rating SETVI” value ([17]; Rate 63 g ai/ha) was 20. The “Post-emerge Herbicidal Activity, phytotoxicity rating SETVI” value ([17]; Rate 250 g ai/ha) was 70, the “Post-emerge Herbicidal Activity, phytotoxicity rating AMARE” value ([18]; Rate 63 g ai/ha) was 90 and the “Post-emerge Herbicidal Activity, phytotoxicity rating AMARE” value ([18]; Rate 250 g ai/ha) was 100. For the same compound, the “Post-emerge Herbicidal Activity, phytotoxicity rating ECHCG” value ([19]; Rate 63 g ai/ha) was 100, the “Post-emerge Herbicidal Activity, phytotoxicity rating ECHCG” value ([19]; Rate 250 g ai/ha) was 100 and the “Post-emerge Herbicidal Activity, phytotoxicity rating IPOHE” value ([20]; Rate 63 g ai/ha) was 80. For the same compound, the “Post-emerge Herbicidal Activity, phytotoxicity rating IPOHE” value ([20]; Rate 250 g ai/ha) was 80, the “Post-emerge Herbicidal Activity, phytotoxicity rating ABUTH” value ([21]; Rate 63 g ai/ha) was 50 and the “Post-emerge Herbicidal Activity, phytotoxicity rating ABUTH” value ([21]; Rate 250 g ai/ha) was 100. For the same compound, the “Pre-emerge phytotoxicity rating, crop damage CORN” value ([22]; 63 g ai/ha) was 0, the “Pre-emerge phytotoxicity rating, crop damage CORN” value ([22]; 250 g ai/ha) was 10 and the “Pre-emerge phytotoxicity rating, crop damage RICE” value ([23]; 63 g ai/ha) was 0. The “Pre-emerge phytotoxicity rating, crop damage RICE” value ([23]; 250 g ai/ha) was 20.
